pIC50: −log10 of the molar value.
Experiment: Inhibition of IFNalpha in human whole blood assessed as reduction in IFNalpha-induced STAT phosphorylation by fluorescence assay
Type: tissue-based

| Compound | pIC50 |
| --- | --- |
| [2H]C([2H])([2H])NC(=O)c1nnc(NC(=O)NCC=C)cc1Nc1cccc(-c2ncn(C)n2)c1OC | 7.22 |
| [2H]C([2H])([2H])NC(=O)c1nnc(NC(=O)OC)cc1Nc1cccc(-c2noc(CN3CCCCS3(=O)=O)n2)c1OC | 7.22 |
| COC(=O)Nc1cc(Nc2cccc(-c3ncn(C)n3)c2OC)c(C(N)=O)nn1 | 7.15 |
| [2H]C([2H])([2H])NC(=O)c1nnc(NC(=O)NCC)cc1Nc1cccc(-c2ncn(C)n2)c1OC | 7.70 |

The remaining lines, values ahead:

| pIC50 | Compound |
| --- | --- |
| 7.52 | COC(=O)Nc1cc(Nc2cccc(-c3noc(CN4CCCCS4(=O)=O)n3)c2OC)c(C(N)=O)nn1 |
| 7.22 | [2H]C([2H])([2H])NC(=O)c1nnc(NC(=O)NCC#C)cc1Nc1cccc(-c2ncn(C)n2)c1OC |

Reference: ChEMBL document CHEMBL4725460, “Novel Amide-Substituted Heterocyclic Compounds for Treating Inflammatory and Autoimmune Diseases” (ACS Med Chem Lett, 2020)
